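Compound exposure: 48 hours, 5 concentrations, 96-well plates. At the GI50, growth is halved. TGI marks complete inhibition of growth.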
Tests used:
Test in all cases: NCI-60 cell line screen, 48 h
MOLT-4 leukemia = system: MOLT-4 leukemia
DLD-1 colon = system: DLD-1 colon
SNB-78 CNS = system: SNB-78 CNS
786-0 renal = system: 786-0 renal
DMS 273 small cell lung = system: DMS 273 small cell lung
M14 melanoma = system: M14 melanoma
MALME-3M melanoma = system: MALME-3M melanoma
M19-MEL melanoma = system: M19-MEL melanoma
LXFL 529 NSCLC = system: LXFL 529 NSCLC
SW-620 colon = system: SW-620 colon
KM20L2 colon = system: KM20L2 colon
DMS 114 small cell lung = system: DMS 114 small cell lung
HS 578T breast = system: HS 578T breast
PC-3 prostate = system: PC-3 prostate
MDA-N = system: MDA-N

Structure (SMILES) | TGI (MOLT-4 leukemia) | TGI (DLD-1 colon) | TGI (SNB-78 CNS) | TGI (786-0 renal) | TGI (DMS 273 small cell lung) | TGI (M14 melanoma) | TGI (MALME-3M melanoma) | TGI (M19-MEL melanoma) | TGI (LXFL 529 NSCLC) | TGI (SW-620 colon) | TGI (KM20L2 colon) | TGI (DMS 114 small cell lung) | GI50 (MOLT-4 leukemia) | GI50 (M14 melanoma) | GI50 (HS 578T breast) | TGI (HS 578T breast) | GI50 (MALME-3M melanoma) | GI50 (SW-620 colon) | TGI (PC-3 prostate) | TGI (MDA-N)
CCOc1cc2c(cc1OC)c[n+](C)c1c3cc(OC)c(OC)cc3ccc21 | > 100 µM | > 100 µM | > 89.9 µM | > 56.6 µM | > 100 µM | > 100 µM | > 100 µM | > 100 µM | > 100 µM | > 93.5 µM | > 100 µM | 51.3 µM |  |  |  |  |  |  |  | 
COc1ccccc1C1C(C#N)=C(N)SC(N)=C1C#N | > 100 µM |  |  |  |  | > 100 µM | > 100 µM |  |  | > 100 µM |  |  | 45 µM | 91.6 µM | > 100 µM | > 100 µM | 81.3 µM | > 100 µM |  | 
CCOC(=O)c1ccc(N2C(=O)/C(=C/c3ccc(N(CCC#N)CCC#N)cc3)N=C2c2cc([N+](=O)[O-])ccc2Cl)cc1 | > 100 µM | > 100 µM | > 100 µM |  | > 100 µM |  | > 100 µM | > 100 µM | > 100 µM | > 100 µM | > 100 µM | > 100 µM |  |  |  |  |  |  |  | 
CC1OC1C(=O)P(=O)(O)O (configuration not stated) | > 100 µM |  |  |  |  | > 100 µM |  |  |  | > 100 µM |  |  |  |  |  | > 100 µM |  |  | > 100 µM | > 100 µM
OC1CCN2Cc3ccccc3N=C12 (configuration not stated) | > 100 µM |  |  | > 100 µM |  | > 100 µM | > 100 µM |  |  | > 100 µM |  |  |  |  |  | > 100 µM |  |  | > 100 µM | > 100 µM
NCC(=O)N[C@H]1c2ccsc2/C(=N/O)[C@H]1O | > 100 µM |  |  |  |  | > 100 µM | > 100 µM |  |  | > 100 µM |  |  |  |  |  |  |  |  | > 100 µM | > 100 µM
Cc1ccccc1NC(=O)C(=O)C(C1OC(=O)c2ccccc21)[N+](=O)[O-] (configuration not stated) | > 100 µM | > 100 µM | > 100 µM |  | > 100 µM | > 100 µM |  | > 100 µM | > 100 µM | > 100 µM | > 100 µM | > 100 µM |  |  |  |  |  |  |  | 
COC1CCC(O)C(CO)O1 (configuration not stated) | > 100 µM | > 100 µM | > 100 µM |  |  | > 100 µM | 65.3 µM | > 100 µM | > 100 µM | > 100 µM | > 100 µM |  |  |  |  |  |  |  |  | 
C[N+](C)(N)Cc1nc(-c2ccc(Cl)cc2)no1 | > 100 µM |  |  | > 100 µM |  | > 100 µM | > 100 µM |  |  | > 100 µM |  |  |  |  |  | > 100 µM |  |  | > 100 µM | > 100 µM
O=C(O)CSC1=NCCN1 | > 100 µM |  |  | > 100 µM |  | > 100 µM | > 100 µM |  |  | > 100 µM |  |  |  |  |  | > 100 µM |  |  | > 100 µM | > 100 µM

Reference: PubChem BioAssay (NCI)
